Measurements taken from patent US20030129629A1, “Methods and compositions for the identification, assessment, prevention, and therapy of human cancers” (Millennium Pharmaceuticals, Inc., priority 2000, published 2003).

System: 60 cancer cell lines (NCI 60 cancer cell line series)
Experiment: NCI-DTP in vitro cancer screen, sulforhodamine B (SRB) growth inhibition, 48 hour exposure
Assay type: cell-based, human
Protocol: Cancer Cell Line Preparation. Sixty cancer cell lines were obtained from the National Cancer Institute Developmental Therapeutics Program (NCI-DTP). Procedures for growing cells and testing compounds have been described previously (Scudiero et al., Cancer Res. 1988, 48:4827-4833; Stinson et al., Anticancer Res.; Myers et al., Electrophoresis 1997, 18:647-653). Cells are plated on day 0 at a density individualized for each cell line so that they will generally be sub-confluent at the end of the assay period. On day 1, a compound is added in the format for a duplicate-well, 5-dose, ten-fold interval dose response study.
No-drug, no-cell and no-growth controls are included. On day 3 the cells are processed for staining with sulforhodamine B (SRB), which reflects the amount of cell mass present at the end of a 48 hour exposure to the test agent. From dose response curves based on the SRB data, various parameters can be determined. […] More precisely, the quantity used in the calculation to be described is the potency measure −log{GI50}.
Activity database (A). […] This subset of compounds was selected from the larger 23,000 compound database available from the DTP. The compounds were selected on the basis of their known mechanism of action and chemical structure. The average potency −log{GI50} was extracted from the comma-delimited text files available through the Web at http://www.nci.nih.gov/intra/lmp/jnwbio.html. Subsequently, these −log{GI50} values were inspected manually and classified as indicating either Low, Medium or High sensitivity to each compound.

## NC(=O)NO [Hydroxyurea]
Breast BT-549 CL5013
  classification of cell line as Low(1), Medium(2), High(3) sensitivity to compound: 1
Breast HS-578T CL5006
  classification of cell line as Low(1), Medium(2), High(3) sensitivity to compound: 2
Breast MCF7(I) CL5001
  classification of cell line as Low(1), Medium(2), High(3) sensitivity to compound: 2
Breast MCF7/ADRr CL5002
  classification of cell line as Low(1), Medium(2), High(3) sensitivity to compound: 2
Breast MDA-MB-231 CL5005
  classification of cell line as Low(1), Medium(2), High(3) sensitivity to compound: 1
Breast MDA-MB-435 CL5011
  classification of cell line as Low(1), Medium(2), High(3) sensitivity to compound: 1
Breast MDA-N CL5012
  classification of cell line as Low(1), Medium(2), High(3) sensitivity to compound: 1
Breast T-47D CL5014
  classification of cell line as Low(1), Medium(2), High(3) sensitivity to compound: 1
CNS SF-268 CL12014
  classification of cell line as Low(1), Medium(2), High(3) sensitivity to compound: 2
CNS SF-295 CL12015
  classification of cell line as Low(1), Medium(2), High(3) sensitivity to compound: 3
CNS SF-539 CL12016
  classification of cell line as Low(1), Medium(2), High(3) sensitivity to compound: 3
CNS SNB-19 CL12002
  classification of cell line as Low(1), Medium(2), High(3) sensitivity to compound: 1
CNS SNB-75(I) CL12005
  classification of cell line as Low(1), Medium(2), High(3) sensitivity to compound: 2
CNS U251(I) CL12009
  classification of cell line as Low(1), Medium(2), High(3) sensitivity to compound: 2
Colon COLO-250 CL4010
  classification of cell line as Low(1), Medium(2), High(3) sensitivity to compound: 1
Colon HCC-2998 CL4002
  classification of cell line as Low(1), Medium(2), High(3) sensitivity to compound: 2
Colon HCT-15 CL4015
  classification of cell line as Low(1), Medium(2), High(3) sensitivity to compound: 2
Colon HCT-116 CL4003
  classification of cell line as Low(1), Medium(2), High(3) sensitivity to compound: 2
Colon HT29(I) CL4001
  classification of cell line as Low(1), Medium(2), High(3) sensitivity to compound: 2
Colon KM12 CL4017
  classification of cell line as Low(1), Medium(2), High(3) sensitivity to compound: 2
Colon SW-620 CL4009
  classification of cell line as Low(1), Medium(2), High(3) sensitivity to compound: 2
Leukemia CCRF-CEM(I) CL7003
  classification of cell line as Low(1), Medium(2), High(3) sensitivity to compound: 3
Leukemia HL-60(I) CL7008
  classification of cell line as Low(1), Medium(2), High(3) sensitivity to compound: 3
Leukemia K562(I) CL7005
  classification of cell line as Low(1), Medium(2), High(3) sensitivity to compound: 2
Leukemia MOLT-4 CL7006
  classification of cell line as Low(1), Medium(2), High(3) sensitivity to compound: 3
Leukemia RPMI-8226(I) CL7010
  classification of cell line as Low(1), Medium(2), High(3) sensitivity to compound: 3
Leukemia SR CL7019
  classification of cell line as Low(1), Medium(2), High(3) sensitivity to compound: 3
Melanoma LOX IMVI CL10001
  classification of cell line as Low(1), Medium(2), High(3) sensitivity to compound: 2
Melanoma M14 CL10014
  classification of cell line as Low(1), Medium(2), High(3) sensitivity to compound: 2
Melanoma MALME-3M CL10002
  classification of cell line as Low(1), Medium(2), High(3) sensitivity to compound: 2
Melanoma SK-MEL-2 CL10005
  classification of cell line as Low(1), Medium(2), High(3) sensitivity to compound: 1
Melanoma SK-MEL-5 CL10007
  classification of cell line as Low(1), Medium(2), High(3) sensitivity to compound: 2
Melanoma SK-MEL-28 CL10008
  classification of cell line as Low(1), Medium(2), High(3) sensitivity to compound: 1
Melanoma UACC-62 CL10020
  classification of cell line as Low(1), Medium(2), High(3) sensitivity to compound: 3
Melanoma UACC-257 CL10021
  classification of cell line as Low(1), Medium(2), High(3) sensitivity to compound: 1
NSCLC A549/ATCC CL1004
  classification of cell line as Low(1), Medium(2), High(3) sensitivity to compound: 2
NSCLC EKVX CL1008
  classification of cell line as Low(1), Medium(2), High(3) sensitivity to compound: 1
NSCLC HOP-62 CL1026
  classification of cell line as Low(1), Medium(2), High(3) sensitivity to compound: 2
NSCLC HOP-92 CL1029
  classification of cell line as Low(1), Medium(2), High(3) sensitivity to compound: 2
NSCLC NCI-H23(I) CL1001
  sensitivity classification Low(1)/Medium(2)/High(3): 2
NSCLC NCI-H226 CL1013
  classification of cell line as Low(1), Medium(2), High(3) sensitivity to compound: 2
NSCLC NCI-H332M CL1017
  sensitivity classification Low(1)/Medium(2)/High(3): 1
NSCLC NCI-H460 CL1021
  sensitivity classification Low(1)/Medium(2)/High(3): 3
NSCLC NCI-H522 CL1003
  sensitivity classification Low(1)/Medium(2)/High(3): 2
Ovarian IGROV1 CL6010
  sensitivity classification Low(1)/Medium(2)/High(3): 2
Ovarian OVCAR-3 CL6001
  sensitivity classification Low(1)/Medium(2)/High(3): 2
Ovarian OVCAR-4 CL6002
  sensitivity classification Low(1)/Medium(2)/High(3): 1
Ovarian OVCAR-5 CL6003
  sensitivity classification Low(1)/Medium(2)/High(3): 2
Ovarian OVCAR-8 CL6005
  sensitivity classification Low(1)/Medium(2)/High(3): 2
Ovarian SK-OV-3 CL6011
  sensitivity classification Low(1)/Medium(2)/High(3): 1
Prostate DU-145 CL11003
  sensitivity classification Low(1)/Medium(2)/High(3): 2
Prostate PC-3(I) CL11001
  sensitivity classification Low(1)/Medium(2)/High(3): 2
Renal 786-0 CL9018
  sensitivity classification Low(1)/Medium(2)/High(3): 2
Renal A498 CL9013
  sensitivity classification Low(1)/Medium(2)/High(3): 2
Renal ACHN CL9023
  sensitivity classification Low(1)/Medium(2)/High(3): 3
Renal CAKI-1 CL9015
  sensitivity classification Low(1)/Medium(2)/High(3): 3
Renal RXF-393 CL9016
  sensitivity classification Low(1)/Medium(2)/High(3): 2
Renal SN12C CL9008
  sensitivity classification Low(1)/Medium(2)/High(3): 2
Renal TK10 CL9024
  sensitivity classification Low(1)/Medium(2)/High(3): 1
Renal UO-31 CL9004
  sensitivity classification Low(1)/Medium(2)/High(3): 2
